# Measured values: patent US10246453B2, “Benzenesulfonamide compounds and their use as therapeutic agents” (Xenon Pharmaceuticals Inc., priority 2016, dated 2019)
# Where a name gives a salt, the structure may show the parent alone.
# How the values were obtained:
# NaV1.6 = NaV1.6 (Homo sapiens (Human), UniProt Q9UQD0); test: Sodium Influx Assay (Flux), NaV1.6; settings: read-out: Flux NaV1.6 IC50; Trex HEK293 cells, ANG2 dye; arithmetic mean
# NaV1.5 = NaV1.5 (Homo sapiens (Human), UniProt Q14524); test: Sodium Influx Assay (Flux), NaV1.5; settings: read-out: Flux NaV1.5 IC50; Trex HEK293 cells, ANG2 dye; arithmetic mean
# NaV1.1 = NaV1.1 (Homo sapiens (Human), UniProt P35498); test: Sodium Influx Assay (Flux), NaV1.1; type: cell-based; settings: Trex HEK293 cells, ANG2 dye; arithmetic mean
# NaV1.5, sequence (Q14524 other isoform, or with tags, fused parts or gaps): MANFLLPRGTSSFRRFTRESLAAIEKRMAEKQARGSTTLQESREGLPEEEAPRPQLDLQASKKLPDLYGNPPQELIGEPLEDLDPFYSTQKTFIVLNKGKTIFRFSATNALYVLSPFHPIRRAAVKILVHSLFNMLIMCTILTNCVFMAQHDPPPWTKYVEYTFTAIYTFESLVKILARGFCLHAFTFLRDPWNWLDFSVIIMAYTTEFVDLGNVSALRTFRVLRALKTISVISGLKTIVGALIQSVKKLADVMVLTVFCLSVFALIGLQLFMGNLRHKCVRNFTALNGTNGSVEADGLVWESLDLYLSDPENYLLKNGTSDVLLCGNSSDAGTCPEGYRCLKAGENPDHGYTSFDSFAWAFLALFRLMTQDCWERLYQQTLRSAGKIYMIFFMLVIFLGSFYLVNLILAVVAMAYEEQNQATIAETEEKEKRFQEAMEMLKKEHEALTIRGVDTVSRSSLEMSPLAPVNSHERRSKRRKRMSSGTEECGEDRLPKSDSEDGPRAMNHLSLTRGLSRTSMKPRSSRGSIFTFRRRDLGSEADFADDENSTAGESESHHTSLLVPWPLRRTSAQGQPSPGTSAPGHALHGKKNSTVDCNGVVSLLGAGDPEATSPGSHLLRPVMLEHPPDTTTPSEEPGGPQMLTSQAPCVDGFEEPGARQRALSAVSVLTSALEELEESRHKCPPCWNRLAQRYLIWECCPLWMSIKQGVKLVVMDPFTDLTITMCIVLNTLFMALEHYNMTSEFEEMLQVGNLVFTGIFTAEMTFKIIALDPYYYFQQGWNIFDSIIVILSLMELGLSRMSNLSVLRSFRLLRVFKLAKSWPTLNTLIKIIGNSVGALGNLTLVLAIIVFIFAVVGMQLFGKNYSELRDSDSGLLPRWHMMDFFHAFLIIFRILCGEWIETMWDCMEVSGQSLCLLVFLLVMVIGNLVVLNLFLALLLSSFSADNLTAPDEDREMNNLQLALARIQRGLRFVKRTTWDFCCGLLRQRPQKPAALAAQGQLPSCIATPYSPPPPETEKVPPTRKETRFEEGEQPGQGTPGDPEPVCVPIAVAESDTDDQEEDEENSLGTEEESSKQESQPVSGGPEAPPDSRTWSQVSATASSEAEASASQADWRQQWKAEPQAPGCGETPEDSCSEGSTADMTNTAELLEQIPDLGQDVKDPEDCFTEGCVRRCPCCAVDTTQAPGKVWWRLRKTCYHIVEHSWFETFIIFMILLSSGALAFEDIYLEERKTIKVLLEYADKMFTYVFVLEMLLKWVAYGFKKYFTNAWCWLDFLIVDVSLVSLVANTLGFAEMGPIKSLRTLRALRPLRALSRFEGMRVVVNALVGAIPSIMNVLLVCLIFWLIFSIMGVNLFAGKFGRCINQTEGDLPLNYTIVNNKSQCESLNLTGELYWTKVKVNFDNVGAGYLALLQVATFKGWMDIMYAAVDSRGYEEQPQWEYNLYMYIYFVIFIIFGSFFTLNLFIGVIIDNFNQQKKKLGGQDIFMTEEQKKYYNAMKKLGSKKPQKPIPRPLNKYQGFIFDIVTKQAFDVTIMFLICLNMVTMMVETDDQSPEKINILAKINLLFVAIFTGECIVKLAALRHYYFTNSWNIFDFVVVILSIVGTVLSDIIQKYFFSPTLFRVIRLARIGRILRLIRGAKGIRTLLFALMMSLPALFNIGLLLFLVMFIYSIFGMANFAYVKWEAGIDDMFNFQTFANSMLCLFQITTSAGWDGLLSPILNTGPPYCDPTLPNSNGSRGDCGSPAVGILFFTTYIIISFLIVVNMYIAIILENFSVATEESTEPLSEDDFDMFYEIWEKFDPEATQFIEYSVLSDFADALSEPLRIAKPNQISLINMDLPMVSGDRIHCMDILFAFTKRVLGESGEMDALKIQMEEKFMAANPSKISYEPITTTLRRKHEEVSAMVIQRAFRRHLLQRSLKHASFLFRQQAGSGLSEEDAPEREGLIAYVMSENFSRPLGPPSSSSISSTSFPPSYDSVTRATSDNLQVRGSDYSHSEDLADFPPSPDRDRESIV
SMILES,IC50 (NaV1.6),IC50 (NaV1.1),IC50 (NaV1.5)
"COc1ccccc1CN1CC[C@H](N(C)c2cc(F)c(S(=O)(=O)Nc3cscn3)cc2C)C1 [Example 119, (S)-2-fluoro-4-((1-(2-methoxybenzyl)-pyrrolidin-3-yl)(methyl)amino)-5-methyl-N-(thiazol-4-yl)benzenesulfonamide formate]",0.368 µM,28.8 µM,20.2 µM
"Cc1cc(S(=O)(=O)Nc2ccc(F)cn2)c(F)cc1N(C)[C@H]1CCN(Cc2ccccc2)C1 [Example 306, (S)-4-((1-benzylpyrrolidin-3-yl)(methyl)amino)-2-fluoro-N-(5-fluoropyridin-2-yl)-5-methylbenzenesulfonamide]",4.56 µM,6.73 µM,11.9 µM
"CN(c1cc(F)c(S(=O)(=O)Nc2cscn2)cc1F)[C@H]1CCN(Cc2ccccc2)C1 [Example 293, (S)-4-((1-benzylpyrrolidin-3-yl)(methyl)amino)-2,5-difluoro-N-(thiazol-4-yl)benzenesulfonamide 2,2,2-trifluoroacetate]",10.9 µM,> 30 µM,> 30 µM
"COc1ccc(CN2CCC(Oc3ccc(S(=O)(=O)Nc4nccs4)cc3Cl)CC2)cc1 [Example 48, 3-chloro-4-((1-(4-methoxybenzyl)piperidin-4-yl)oxy)-N-(thiazol-2-yl)benzenesulfonamide]",3.67 µM,10.5 µM,7.82 µM
"Cc1coc(CN2CC[C@H](N(C)c3cc(F)c(S(=O)(=O)Nc4cscn4)cc3C)C2)n1 [Example 139, (S)-2-fluoro-5-methyl-4-(methyl(1-((4-methyloxazol-2-yl)methyl)pyrrolidin-3-yl)amino)-N-(thiazol-4-yl)benzenesulfonamide]",7.73 µM,> 30 µM,> 30 µM
"Cc1cc(S(=O)(=O)Nc2cscn2)c(F)cc1N(C)[C@H]1CCN(Cc2ccn(C(F)F)n2)C1 [Example 147, (S)-4-((1-((1-(difluoromethyl)-1H-pyrazol-3-yl)methyl)pyrrolidin-3-yl)(methyl)amino)-2-fluoro-5-methyl-N-(thiazol-4-yl)benzenesulfonamide]",0.482 µM,> 30 µM,> 30 µM
"O=S(=O)(Nc1cscn1)c1cc(Cl)c(N[C@@H]2CCN(Cc3ccccc3)C2)cc1F [Example 261, (R)-4-((1-benzylpyrrolidin-3-yl)amino)-5-chloro-2-fluoro-N-(thiazol-4-yl)benzenesulfonamide]",6.04 µM,8.29 µM,24.6 µM
"O=S(=O)(Nc1nccs1)c1ccc(OC2CN(Cc3ccccc3)C2)c(Cl)c1 [Example 76, 4-((1-benzylazetidin-3-yl)oxy)-3-chloro-N-(thiazol-2-yl)benzenesulfonamide]",4.7 µM,11.4 µM,16.8 µM
"CC1(Oc2ccc(S(=O)(=O)Nc3nccs3)cc2Cl)CCN(Cc2cccc(Cl)c2)CC1 [Example 20, 3-chloro-4-((1-(3-chlorobenzyl)-4-methylpiperidin-4-yl)oxy)-N-(thiazol-2-yl)benzenesulfonamide]",5.62 µM,5.93 µM,6.1 µM
"CN(c1cc(F)c(S(=O)(=O)Nc2cscn2)cc1Cl)[C@H]1CCN(Cc2ccc(F)cc2)C1 [Example 180, (S)-5-chloro-2-fluoro-4-((1-(4-fluorobenzyl)-pyrrolidin-3-yl)(methyl)amino)-N-(thiazol-4-yl)benzene-sulfonamide]",5.29 µM,16.8 µM,25.4 µM
"Cc1cc(S(=O)(=O)Nc2cscn2)c(F)cc1N[C@H]1CCN(Cc2ccccc2)C1 [Example 288, (S)-4-((1-benzylpyrrolidin-3-yl)amino)-2-fluoro-5-methyl-N-(thiazol-4-yl)benzenesulfonamide 2,2,2-trifluoroacetate]",4.32 µM,15.9 µM,27.4 µM

# More lines, in order of falling IC50 (NaV1.6), values ahead:
IC50 (NaV1.6),IC50 (NaV1.1),SMILES,IC50 (NaV1.5)
3.33 µM,5.2 µM,"CN(c1cc(F)c(S(=O)(=O)Nc2cscn2)cc1Cl)[C@H]1CCN(Cc2cc(Cl)ccc2Cl)C1 [Example 197, (S)-5-chloro-4-((1-(2,5-dichlorobenzyl)pyrrolidin-3-yl)(methyl)amino)-2-fluoro-N-(thiazol-4-yl)benzenesulfonamide]",3.17 µM
2.8 µM,> 30 µM,"CN(c1cc(F)c(S(=O)(=O)Nc2cscn2)cc1Cl)[C@H]1CCN(Cc2nc(C(F)F)ccc2F)C1 [Example 163, (S)-5-chloro-4-((1-((6-(difluoromethyl)-3-fluoropyridin-2-yl)methyl)pyrrolidin-3-yl)(methyl)amino)-2-fluoro-N-(thiazol-4-yl)benzenesulfonamide formate]",> 30 µM
2.78 µM,3.79 µM,"C[C@H](c1cc(C(F)F)ccc1F)N1CCC(Oc2ccc(S(=O)(=O)Nc3cscn3)cc2Cl)CC1 [Example 292, (R)-3-chloro-4-((1-(1-(5-(difluoromethyl)-2-fluorophenyl)ethyl)piperidin-4-yl)oxy)-N-(thiazol-4-yl)benzenesulfonamide formate]",1.88 µM
2.55 µM,13.2 µM,"CN(c1cc(F)c(S(=O)(=O)Nc2cscn2)cc1Cl)[C@H]1CCN(CCC(C)(C)C)C1 [Example 175, (S)-5-chloro-4-((1-(3,3-dimethylbutyl)-pyrrolidin-3-yl)(methyl)amino)-2-fluoro-N-(thiazol-4-yl)benzene-sulfonamide 2,2,2-trifluoroacetate]",> 30 µM
1.79 µM,2.94 µM,"CN(c1cc(F)c(S(=O)(=O)Nc2cscn2)cc1Cl)[C@H]1CCN(Cc2cccc(C(F)(F)F)c2)C1 [Example 214, (S)-5-chloro-2-fluoro-4-(methyl(1-(3-(trifluoromethyl)benzyl)pyrrolidin-3-yl)amino)-N-(thiazol-4-yl)benzenesulfonamide]",5.54 µM
1.47 µM,> 30 µM,"Cc1cc(CN2CC[C@H](N(C)c3cc(F)c(S(=O)(=O)Nc4cscn4)cc3C)C2)ns1 [Example 121, (S)-2-fluoro-5-methyl-4-(methyl(1-((5-methylisothiazol-3-yl)methyl)pyrrolidin-3-yl)amino)-N-(thiazol-4-yl)benzenesulfonamide formate]",> 30 µM
1.27 µM,7.13 µM,"CN(c1cc(F)c(S(=O)(=O)Nc2cscn2)cc1Cl)[C@H]1CCN(Cc2ccccc2OC(F)F)C1 [Example 210, (S)-5-chloro-4-((1-(2-(difluoromethoxy)benzyl)pyrrolidin-3-yl)(methyl)amino)-2-fluoro-N-(thiazol-4-yl)benzenesulfonamide]",8.36 µM
1.01 µM,17.3 µM,"CN(c1cc(F)c(S(=O)(=O)Nc2cscn2)cc1Cl)[C@H]1CCN(Cc2cccc(C(F)(F)F)n2)C1 [Example 187, (S)-5-chloro-2-fluoro-4-(methyl(1-((6-(trifluoromethyl)-pyridin-2-yl)methyl)pyrrolidin-3-yl)amino)-N-(thiazol-4-yl)benzene-sulfonamide]",25.4 µM
0.763 µM,> 30 µM,"Cc1cc(S(=O)(=O)Nc2cscn2)c(F)cc1N(C)[C@H]1CCN(Cc2ccn(C)n2)C1 [Example 111, (S)-2-fluoro-5-methyl-4-(methyl(1-((1-methyl-1H-pyrazol-3-yl)methyl)pyrrolidin-3-yl)amino)-N-(thiazol-4-yl)benzenesulfonamide formate]",> 30 µM
0.732 µM,4.96 µM,"CN(c1cc(F)c(S(=O)(=O)Nc2nccs2)cc1Cl)[C@H]1CCN(Cc2ccccc2)C1 [Example 39, (S)-4-((1-benzylpyrrolidin-3-yl)(methyl)amino)-5-chloro-2-fluoro-N-(thiazol-2-yl)benzenesulfonamide bis(trifluoroacetic acid) salt]",13.1 µM
0.531 µM,3.7 µM,"Cc1cc(S(=O)(=O)Nc2cscn2)c(F)cc1N(C)[C@H]1CCN(Cc2ccc(C(F)(F)F)o2)C1 [Example 142, (S)-2-fluoro-5-methyl-4-(methyl(1-((5-(trifluoromethyl)furan-2-yl)methyl)pyrrolidin-3-yl)amino)-N-(thiazol-4-yl)benzenesulfonamide]",6.76 µM
0.403 µM,> 30 µM,"Cc1ccc(F)c(CN2CC[C@H](N(C)c3ccc(S(=O)(=O)Nc4cscn4)c(F)c3C)C2)n1 [Example 324, (S)-2-fluoro-4-((1-((3-fluoro-6-methylpyridin-2-yl)methyl)pyrrolidin-3-yl)(methyl)amino)-3-methyl-N-(thiazol-4-yl)benzenesulfonamide 2,2,2-trifluoroacetate]",> 30 µM
0.353 µM,8.7 µM,"O=S(=O)(Nc1nccs1)c1ccc(OC2CCN(Cc3cccc(Cl)c3)CC2)c(Cl)c1 [Example 85, 3-chloro-4-(1-(3-chlorobenzyl)piperidin-4-yloxy)-N-(thiazol-2-yl)benzenesulfonamide]",5.71 µM
0.274 µM,9.93 µM,"CN(c1ccc(S(=O)(=O)Nc2nccs2)cc1Cl)C1(C)CCN(Cc2ccccc2)C1 (stereo not drawn) [Example 241, 4-((1-benzyl-3-methylpyrrolidin-3-yl)(methyl)amino)-3-chloro-N-(thiazol-2-yl)benzenesulfonamide]",15.1 µM
0.178 µM,> 30 µM,"Cc1cc(S(=O)(=O)Nc2cscn2)c(F)cc1O[C@@]1(C)CCN(Cc2ccccc2)C1 [Example 159, (S)-4-((1-benzyl-3-methylpyrrolidin-3-yl)oxy)-2-fluoro-5-methyl-N-(thiazol-4-yl)benzenesulfonamide formate]",> 30 µM
0.021 µM,7.97 µM,"CN(c1ccc(S(=O)(=O)Nc2ncns2)cc1Cl)[C@H]1CCN(Cc2cccc(Cl)c2)C1 [Example 30, (S)-3-chloro-4-((1-(3-chlorobenzyl)pyrrolidin-3-yl)(methyl)amino)-N-(1,2,4-thiadiazol-5-yl)benzenesulfonamide]",18.7 µM
